This is an account of results in patent US20190375708A1 (VenatoRx Pharmaceuticals, Inc., priority 2018, published 2019).

Some results are limits rather than exact numbers.

The test system of data set [1] is HBV replication in HepAD38 cells. In words: Anti-HBV replication assay in HepAD38 cells (QPCR of extracellular HBV DNA). Format: cell-based, HBV (genotype D, serotype ayw). The following applies: Hepatitis B virus, 168 h, 7 days incubation, extracellular HBV DNA by QPCR, read-out: Anti-HBV EC50. A digest of the protocol: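 Steps: seed HepAD38 overnight without tetracycline; refresh medium and add 1 log10 serial dilutions ([…]); incubate 7 days at 37 °C; quantify supernatant HBV DNA by QPCR; derive EC50 from a 4-parameter dose-response fit.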

A short description of data set [2]: In vitro cytotoxicity assay (MTT cell viability) in HepG2 cells. The format is cell-based, human. The settings on record: human. A digest of the protocol: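 Using MTT conversion as the viability measure, HepG2 cells were incubated with compounds for 7 days (30 μM to 1.0 nM). Absorbance at 492 nm was normalized to vehicle and fitted to give CC50.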

`Cc1cc(NC(=O)c2c(C)c(C(=O)C(=O)NC(C)(C)C(F)(F)F)n(CCF)c2C)cnc1F` [Example 224, N-(6-ffluoro-5-methylpyridin-3-yl)-1-(2-fluoroethyl)-2,4-dimethyl-5-(2-oxo-2-((1,1,1-trifluoro-2-methylpropan-2-yl)amino)acetyl)-1H-pyrrole-3-carboxamide]: the EC50 (usually the concentration at which the effect is half-maximal) in data set [1] was 50 to 499 nM. Also, the CC50 (in general, the concentration at which the toxic effect on the cells reaches its halfway point) at 7 days in data set [2] is greater than 30000 nM.
The matching figures for `Cc1noc(C(NC(=O)C(=O)c2c(C)c(C(=O)Nc3ccc(F)c(C)c3)c(C)n2C)C2CCOCC2)n1` (stereo not drawn) [Example 85, N-(4-fluoro-3-methylphenyl)-1,2,4-trimethyl-5-(2-(((3-methyl-1,2,4-oxadiazol-5-yl)(tetrahydro-2H-pyran-4-yl)methyl)amino)-2-oxoacetyl)-1H-pyrrole-3-carboxamide]: less than 50 nM and greater than 30000 nM.
The matching figures for `Cc1cc(NC(=O)c2c(C)c(C(=O)C(=O)NC(C)(C)CN3CCN(C)CC3)n(C)c2C)ccc1F` [Example 651, N-(4-fluoro-3-methylphenyl)-1,2,4-trimethyl-5-(2-((2-methyl-1-(4-methylpiperazin-1-yl)propan-2-yl)amino)-2-oxoacetyl)-1H-pyrrole-3-carboxamide]: less than 50 nM and greater than 30000 nM.
As for `Cc1cc(NC(=O)c2c(C)c(C(=O)C(=O)NC(C)(C)C(=O)N3CCC(O)CC3)n(C)c2C)ccc1F` [Example 597, N-(4-fluoro-3-methylphenyl)-5-(2-((1-(4-hydroxypiperidin-1-yl)-2-methyl-1-oxopropan-2-yl)amino)-2-oxoacetyl)-1,2,4-trimethyl-1H-pyrrole-3-carboxamide], in data set [1], the EC50 was less than 50 nM. In data set [2], the CC50 at 7 days is greater than 30000 nM.
The like results for `COc1c(C(=O)Nc2ccc(F)c(F)c2)c(C)n(C)c1C(=O)C(=O)NC(C)(C)CO` [Example 381, N-(3,4-difluorophenyl)-5-(2-((1-hydroxy-2-methylpropan-2-yl)amino)-2-oxoacetyl)-4-methoxy-1,2-dimethyl-1H-pyrrole-3-carboxamide] were, in that order, 50 to 499 nM and greater than 30000 nM.
With `Cc1cc(NC(=O)c2cc(C(=O)C(=O)NC(C)(C)C(F)(F)F)n3c2CCCC3)ccc1F` [Example 409, N-(4-fluoro-3-methylphenyl)-3-(2-oxo-2-((1,1,1-trifluoro-2-methylpropan-2-yl)amino)acetyl)-5,6,7,8-tetrahydroindolizine-1-carboxamide], the EC50 in data set [1] lay within 50 to 499 nM. Also, the CC50 at 7 days in data set [2] is greater than 30000 nM.
The matching figures for `Cc1cc(NC(=O)c2c(C)c(C(=O)C(=O)N[C@H](C(=O)O)C3CCCCC3)n(C)c2C)ccc1F` [Example 68, (S)-2-cyclohexyl-2-(2-(4-((4-fluoro-3-methylphenyl)carbamoyl)-1,3,5-trimethyl-1H-pyrrol-2-yl)-2-oxoacetamido)acetic acid]: greater than 1000 nM and greater than 30000 nM.
For the molecule `Cc1cc(NC(=O)c2c(C)c(C(=O)C(=O)N[C@H]3CC[C@@H](O)CC3)n(C)c2C)cc(Cl)n1` [Example 628, N-(2-chloro-6-methylpyridin-4-yl)-5-(2-(((1s,4s)-4-hydroxycyclohexyl)amino)-2-oxoacetyl)-1,2,4-trimethyl-1H-pyrrole-3-carboxamide], the EC50 in data set [1] is less than 50 nM. The CC50 at 7 days in data set [2] was greater than 30000 nM.
The like results for `Cc1cc(NC(=O)c2c(C)c(C(=O)C(=O)NC[C@@H](C)O)n(C)c2C)ccc1F` [Example 220, (R)-N-(4-ffluoro-3-methylphenyl)-5-(2-((2-hydroxypropyl)amino)-2-oxoacetyl)-1,2,4-trimethyl-1H-pyrrole-3-carboxamide] were, in that order, less than 50 nM and 5000 to 30000 nM.
Take `COC(=O)[C@@H](NC(=O)C(=O)c1c(C)c(C(=O)Nc2ccc(F)c(C)c2)c(C)n1C)C1CCCCC1` [Example 55, methyl (S)-2-cyclohexyl-2-(2-(4-((4-fluoro-3-methylphenyl)carbamoyl)-1,3,5-trimethyl-1H-pyrrol-2-yl)-2-oxoacetamido)acetate]: the EC50 in data set [1] was 500 to 1000 nM. Besides, the CC50 at 7 days in data set [2] was in the range of 500 to 4990 nM.
The like results for `Cc1cc(NC(=O)c2c(C)c(C(=O)C(=O)N[C@H](C(N)=O)C(C)C)n(C)c2C)ccc1F` [Example 107, (S)-5-(2-((1-amino-3-methyl-1-oxobutan-2-yl)amino)-2-oxoacetyl)-N-(4-fluoro-3-methylphenyl)-1,2,4-trimethyl-1H-pyrrole-3-carboxamide] were, in that order, less than 50 nM and greater than 30000 nM.
`Cc1cc(NC(=O)c2c(C)c(C(=O)C(=O)NCC3(O)CCOCC3)n(C)c2C)ccc1F` [Example 150, N-(4-fluoro-3-methylphenyl)-5-(2-(((4-hydroxytetrahydro-2H-pyran-4-yl)methyl)amino)-2-oxoacetyl)-1,2,4-trimethyl-1H-pyrrole-3-carboxamide]: the EC50 in data set [1] was less than 50 nM. Besides, the CC50 at 7 days in data set [2] is greater than 30000 nM.
The matching figures for `COc1c(C(=O)Nc2ccc(F)c(F)c2)c(C)n(C)c1C(=O)C(=O)N[C@H]1CC[C@@H](O)CC1` [Example 383, N-(3,4-difluorophenyl)-5-(2-(((1s,4s)-4-hydroxycyclohexyl)amino)-2-oxoacetyl)-4-methoxy-1,2-dimethyl-1H-pyrrole-3-carboxamide]: 500 to 1000 nM and greater than 30000 nM.
The matching figures for `Cc1c(C(=O)Nc2ccc(F)c(Cl)c2)c(C)n(C)c1C(=O)C(=O)Nc1ccc(F)nc1` [Example 312, N-(3-chloro-4-fluorophenyl)-5-(2-((6-fluoropyridin-3-yl)amino)-2-oxoacetyl)-1,2,4-trimethyl-1H-pyrrole-3-carboxamide]: less than 50 nM and 5000 to 30000 nM.
On to `Cc1cc(NC(=O)c2c(C)c(C(=O)C(=O)N[C@@H]3CC[C@H](O)[C@@H]3O)n(C)c2C)ccc1F` [Example 152, 5-(2-(((1R,2R,3S)-2,3-dihydroxycyclopentyl)amino)-2-oxoacetyl)-N-(4-fluoro-3-methylphenyl)-1,2,4-trimethyl-1H-pyrrole-3-carboxamide], for which the EC50 in data set [1] was less than 50 nM. The CC50 at 7 days in data set [2] was greater than 30000 nM.
The matching figures for `Cc1cc(NC(=O)c2c(C)c(C(=O)C(=O)N[C@H]3CC[C@](C)(O)CC3)n3c2CCCC3)ccc1F` [Example 740, N-(4-fluoro-3-methylphenyl)-3-(2-(((1r,4r)-4-hydroxy-4-methylcyclohexyl)amino)-2-oxoacetyl)-2-methyl-5,6,7,8-tetrahydroindolizine-1-carboxamide]: less than 50 nM and greater than 30000 nM.
The matching figures for `Cc1noc(C(NC(=O)C(=O)c2cc(C(=O)Nc3ccc(F)c(C)c3)c3n2CCCC3)C(C)C)n1` (stereo not drawn) [Example 394, N-(4-fluoro-3-methylphenyl)-3-(2-((2-methyl-1-(3-methyl-1,2,4-oxadiazol-5-yl)propyl)amino)-2-oxoacetyl)-5,6,7,8-tetrahydroindolizine-1-carboxamide]: 50 to 499 nM and greater than 30000 nM.
Consider `Cc1cc(NC(=O)c2c(C)c(C(=O)C(=O)Nc3ccccn3)n(C)c2C)ccc1F` [Example 276, N-(4-fluoro-3-methylphenyl)-1,2,4-trimethyl-5-(2-oxo-2-(pyridin-2-ylamino)acetyl)-1H-pyrrole-3-carboxamide], for which the EC50 in data set [1] is less than 50 nM. This molecule also came in with a 50% cytotoxic concentration (CC50) at 7 days in data set [2] greater than 30000 nM.
The like results for `Cc1nc2c(s1)C(NC(=O)C(=O)c1c(C)c(C(=O)Nc3cnc(F)c(C)c3)c(C)n1C)CCC2` (stereo not drawn) [Example 606, N-(6-fluoro-5-methylpyridin-3-yl)-1,2,4-trimethyl-5-(2-((2-methyl-4,5,6,7-tetrahydrobenzo[d]thiazol-7-yl)amino)-2-oxoacetyl)-1H-pyrrole-3-carboxamide] were, in that order, less than 50 nM and greater than 30000 nM.
The like results for `Cc1cc(NC(=O)c2c(C)c(C(=O)C(=O)N[C@H]3CC[C@H](N)CC3)n(C)c2C)ccc1F` [Example 232, 5-(2-(((1r,4r)-4-aminocyclohexyl)amino)-2-oxoacetyl)-N-(4-fluoro-3-methylphenyl)-1,2,4-trimethyl-1H-pyrrole-3-carboxamide] were, in that order, less than 50 nM and greater than 30000 nM.
The like results for `Cc1cc(NC(=O)c2c(C)c(C(=O)C(=O)N[C@H]3C[C@H](O)C34CCOCC4)n(C)c2C)ccc1F` [Example 620, N-(4-fluoro-3-methylphenyl)-5-(2-(((1S,3S)-3-hydroxy-7-oxaspiro[3.5]nonan-1-yl)amino)-2-oxoacetyl)-1,2,4-trimethyl-1H-pyrrole-3-carboxamide] were, in that order, less than 50 nM and greater than 30000 nM.
In the case of `Cc1cc(NC(=O)c2c(C)c(C(=O)C(=O)N[C@H](CO)C(N)=O)n(C)c2C)ccc1F` [Example 54, (R)-5-(2-((1-amino-3-hydroxy-1-oxopropan-2-yl)amino)-2-oxoacetyl)-N-(4-fluoro-3-methylphenyl)-1,2,4-trimethyl-1H-pyrrole-3-carboxamide], in data set [1], the EC50 was 50 to 499 nM. In data set [2], the CC50 at 7 days was greater than 30000 nM.
The matching figures for `Cc1cc(NC(=O)c2c(C)c(C(=O)C(=O)NC(C)(C)C)n(CCO)c2C)ccc1F` [Example 71, 5-(2-(tert-butylamino)-2-oxoacetyl)-N-(4-fluoro-3-methylphenyl)-1-(2-hydroxyethyl)-2,4-dimethyl-1H-pyrrole-3-carboxamide]: greater than 1000 nM and greater than 30000 nM.
Turning to `Cc1c(C(=O)Nc2cccc(Cl)c2)c(C)n(C)c1C(=O)C(=O)N[C@H](C)C(F)(F)F` [Example 603, (R)-N-(3-chlorophenyl)-1,2,4-trimethyl-5-(2-oxo-2-((1,1,1-trifluoropropan-2-yl)amino)acetyl)-1H-pyrrole-3-carboxamide], the EC50 in data set [1] was less than 50 nM. Also, the CC50 at 7 days in data set [2] was 5000 to 30000 nM.
